CCCNS(=O)(=O)Nc1ncnc(OCCOc2ncc(Br)cn2)c1-c1ccc(Br)cc1
solubility (mole fraction)
Details	273.15 K	278.15 K	283.15 K	288.15 K	293.15 K	298.15 K	303.15 K	308.15 K	313.15 K
in ethanol	6.4e-05	8.8e-05	0.000117	0.000151	0.000188	0.000234	0.000293	0.000365	0.000458
in ethyl acetate	0.00338	0.00406	0.00483	0.00577	0.00681	0.00793	0.00921	0.0107	0.0122
in isopropanol	4.7e-05	5.9e-05	7.5e-05	9.2e-05	0.000114	0.000141	0.000172	0.000206	0.000246
in methanol	7.6e-05	0.000109	0.000145	0.000186	0.000232	0.000284	0.000358	0.000463	0.000602

Source: BigSolDB 2.1
